Experimental data as given in US11084847B2, “Polyamide compound and use thereof” (SICHUAN KELUN-BIOTECH BIOPHARMACEUTICAL CO., LTD., priority 2016, dated 2021).
Like-named read-outs stand apart in the source and are kept apart here.

Columns and labels:
KOR = KOR (Homo sapiens, UniProt P41145); assay: Opioid receptor selectivity, radioligand competition binding (3H-diprenophrine) on cell membranes
Experimental: (§1) The selectivity of the compounds of the invention for κ opioid receptors was determined by measuring the inhibitory effect of the compounds of Examples on the […] of KOR, MOR, and DOR.
(§2) The compounds of Examples at different concentrations were incubated with the cell membrane with high expression of KOR, MOR, DOR and the corresponding radioligand (KOR: 3H-diprenophrine; MOR: 3H-DAMGO; DOR: 3H-DADLE) for 1 h, the compounds of Examples competed with the radioligands for binding to KOR, MOR, DOR. After the incubation, Cell harvest was used to collect cell membranes onto a Unifilter-96 GF/C filter plate, and the unbound radioligands were washed away. The plate was placed in a 50-degree oven for 1 h, and finally the scintillation solution Microscint 20 cocktail was added and the isotope signal was detected by MicroBeta2 Reader.
(§3) According to the intensity of the isotope signal at different concentrations, the IC50 was calculated by means of fitting with a four-parameter equation, and the Ki value was calculated.
(§4) The Ki value was calculated according to the formula Ki=IC50/(1+[radioligand]/Kd), and Kd was the equilibrium dissociation constant of radioligand.

male ICR mice = assay: Acetic acid-induced writhing test in mice; type: in vivo; parameters: ED50: unit not given here
Experimental: The analgesic effect of the compound of the invention was evaluated by measuring the ED50 of the compounds of Examples in the acetic acid-induced writhing test in mice.
The commercial glacial acetic acid solution was diluted with physiological saline to 0.6% glacial acetic acid solution. The male ICR mice were randomly separated into the drug group and the model group (to which physiological saline was administration). 15 minutes after iv administration, 0.6% acetic acid solution was intraperitoneally injected at 10 ml/kg, and the mice was immediately recorded with DV camera for 15 min. After the recording, the number of writhes of the mice within 15 min was counted from the video by blind method, the inhibition rate for the writhes was calculated according to Formula (I), and the ED50 of the compound was calculated according to Formula (II).
(I) The inhibition rate for the writhes was calculated by the formula: Inhibition rate (%)=(the number of writhes in a model group−the number of writhes in a drug group)/the number of writhes in a model group*100.
(II) The ED50 was calculated by the formula:
[formula] wherein Xm was the logarithm of the highest dose, d was the difference in the logarithm of two adjacent doses, p was the inhibition rate for each dose group, pm was the highest-dose inhibition rate, and pn was the lowest-dose inhibition rate.

[1] = molecular target: T1, human κ-opioid receptor (KOR) (Homo sapiens, UniProt P41145); assay: κ-opioid receptor agonistic effect (inhibition of adenylate cyclase, cAMP assay); type: cell-based; conditions: CHO cells stably expressing human KOR; NKH477-stimulated cAMP; four-parameter fit; read-out: ED50 (the source's name)
T1 construct: expressed in transfected cells
Experimental: The efficacy of the compounds of the invention as κ-opioid receptor agonists was determined by measuring the ability of the compounds of Examples to inhibit adenylate cyclase activity.
Cell culture: hamster ovary cells CHO stably expressing human κ-opioid receptor (KOR) gene were cultured in MEMα plus nucleosides medium (Invitrogen) containing 5% FBS.
Stimulation: the test compound was 4-fold diluted in a gradient manner to obtain 11 concentrations, and 100 nl of each was transferred to a 384-well plate, and then a stimulating solution (5 uL) containing NKH477 (Tocris) was added; the cells were digested, re-suspended, and counted; and then the cells (5 uL) were added to wells, mixed gently, and incubated at 37° C. for 30 min.
Detection: cAMP Assay Kit (Cisbio) was used, cAMP-D2 and Anti-cAMP-Cryptate were added separately, and the resultant mixture was incubated for 1 h at room temperature. The plate was read using envision (Perkin Elmer) and EC50 was obtained by means of fitting with a four-parameter equation.

MOR = MOR (Homo sapiens, UniProt P35372); assay: Opioid receptor selectivity, radioligand competition binding (3H-DAMGO) on cell membranes
Experimental: as §1, §2, §3, §4

DOR = DOR (Homo sapiens, UniProt P41143); assay: Opioid receptor selectivity, radioligand competition binding (3H-DADLE) on cell membranes
Experimental: as §1, §2, §3, §4

[2] = Ability of compounds to pass through the blood-brain barrier (plasma and brain tissue concentration); type: in vivo; conditions: rat, male rats, iv 1 mg/kg; for concentration at 5 min: 5 min after administration; for concentration at 15 min: 15 min after administration; for concentration at 30 min: 30 min after administration; for concentration at 60 min: 60 min after administration
Experimental: After peripheral intravenous administration of the compound of each Example to the animal, samples of peripheral plasma and brain tissue were taken to determine the concentration of the compound in the peripheral plasma and brain tissue.
After intravenously injected with the compound of Example 5 at 1 mg/kg to male rats, samples of plasma and brain tissues were taken at various time points, and the contents of the test compound in the peripheral plasma and brain tissue were determined.

[3] = Pharmacokinetic (PK) study in rats; type: in vivo; conditions: male SD rats, intravenous, 1 mg/kg
Experimental: The pharmacokinetic profile of the compounds of Examples was studied by intravenous administration of the compounds of Examples to male SD rats. The dose for IV administration was 1 mg/kg, and the solvent was 5% DMSO: 5% solutol: 90% physiological saline. After IV administration, blood samples were collected at different time points for PK study. Plasma were treated by protein precipitation and then analyzed by LC-MS/MS.
In LC-MS/MS, mass spectrum was API 5500, and liquid chromatography was Shimadzu LC-30AD system. The column used for the test groups of Compound 3 and Compound 4 was Thermo C18 column (4.6 mm×100 mm, 3 μm); for mobile phases, phase A was water+0.1% formic acid, and phase B was methanol; the flow rate was 0.8 mL/min, and the column temperature was 40° C. The column used for the test group of Compound 5 was Agela AQ C18 column (2.1 mm×50 mm, 1.9 μm); for mobile phases, phase A was water+0.05% formic acid+5 mM acetic acid ammonium, and phase B was methanol+0.05% formic acid; the flow rate was 0.6 mL/min, and the column temperature was 40° C. The ion source used was the ESI source in positive ion mode, and the scanning mode was Multiple Reaction Monitoring (MRM).

[4] = brain, read-out: Concentration in brain tissue
[5] = plasma, read-out: Concentration in peripheral plasma

For `COCCOCCNCCCC[C@@H](NC(=O)[C@@H](CC(C)C)NC(=O)[C@@H](Cc1ccccc1)NC(=O)[C@H](N)Cc1ccccc1)C(=O)N1CCC(N)(C(=O)O)CC1` [Example 5, 4-amino-1-((R)-2-((R)-2-((R)-2-((R)-2-amino-3-phenylpropanamido)-3-phenylpropanamido)-4-methylpentanamido)-6-((2-(2-methoxyethoxy)ethyl)amino)hexanoyl)piperidin-4-carboxylic acid], the “KOR selectivity (in words)” value (KOR; KOR versus MOR and DOR binding) was “excellent KOR selectivity”, the Ki (KOR; Ki=IC50/(1+[radioligand]/Kd), read-out: KOR Ki) was 0.02 nM and the IC50 (KOR; radioligand 3H-diprenophrine, 1 h incubation, read-out: KOR IC50) was 0.05 nM. The “analgesic effect (in words)” value (male ICR mice; acetic acid-induced writhing, mice, iv) was “significant analgesic effect”, the ED50 (male ICR mice; iv administration 15 min before 0.6% acetic acid ip, writhes counted within 15 min) was 0.017 and the EC50 [1] was 0.05 nM. For the same molecule, the Ki (MOR; Ki=IC50/(1+[radioligand]/Kd), read-out: MOR Ki) was > 7180 nM, the IC50 (MOR; radioligand 3H-DAMGO, 1 h incubation, read-out: MOR IC50) was > 20000 nM and the Ki (DOR; Ki=IC50/(1+[radioligand]/Kd), read-out: DOR Ki) was > 12000 nM. For the same molecule, the IC50 (DOR; radioligand 3H-DADLE, 1 h incubation, read-out: DOR IC50) was > 20000 nM, the concentration at 5 min [2, 4] was 0 ng/mL and the concentration at 15 min [2, 4] was 0 ng/mL. It also gave a concentration at 30 min [2, 4] of 0.2 ng/mL, a concentration at 60 min [2, 4] of 0 ng/mL and a concentration at 5 min [2, 5] of 1310 ng/mL. It also gave a concentration at 15 min [2, 5] of 716 ng/mL, a concentration at 30 min [2, 5] of 386 ng/mL and a concentration at 60 min [2, 5] of 136 ng/mL. The “pharmacokinetic profile (in words)” value [3] was “good exposure amount and Cmax”, the AUC(0-t) ([3]; rat, plasma) was 783 ng·h/mL and the Cmax ([3]; rat, plasma) was 1690 ng/mL. For the same molecule, the Vd ([3]; rat, plasma) was 0.53 L/kg and the half-life ([3]; rat, plasma) was 16.8 min.
